Reference: patent publication US6699660B2, “Immediate early genes and methods of use therefor” (The Johns Hopkins University School of Medicine, priority 1998, dated 2004)

Tests used:
[1] = tested on: R010 expression in PC12 cells; assay: NGF treatment of PC12 cells, R010 expression; type: cell-based
L094 mRNA = assay: kainate-induced seizures, mRNA expression by Northern blot and RT-PCR; type: in vivo, rat; details: hippocampus, 1.5 hour, vs PBS
Experimental: (§1) Kainate-induced seizures is a model used to study epilepsy. Briefly, 300-350 g male Sprague-Dawley rats were intrapertoneally injected with either 10 mg/kg body weight of kainate or PBS. RNA samples from the hippocampus, cortex, and cerebellum were prepared from treated rats at 1.5, 6, and 24 hours post-injection. This RNA then was used to measure mRNA expression by Northern blot and RT-PCR analysis. Control mRNA measurements included c-fos, GAPDH, NO-38, and ATF-4 for the Northern blot analysis, and Hsp70, c-jun, Zif268, c-fos, Clathrin, and β-actin for the RT-PCR analysis. A Phosphoimager FLA2000 (Fuji) was used to analyze the data, which was expressed as the Integral PSL—background PSL (1D evaluation with Aida version 2.0).

L100 mRNA [2] = assay: as above; type: in vivo, rat; details: for L100 mRNA expression normalized to GADPH expression: Integral PSL - background PSL; for Fold increase in L100 mRNA expression upon kainate treatment: vs PBS
Experimental: as §1

R113 mRNA [3] = assay: as above; type: in vivo, rat; details: hippocampus, 1.5 hour, vs PBS
Experimental: as §1

A013 mRNA = assay: as above; type: in vivo, rat; details: hippocampus, 1.5 hour, vs PBS
Experimental: as §1

L119 mRNA [4] = assay: as above; type: in vivo, rat; details: for L119 mRNA expression normalized to GADPH expression: Integral PSL - background PSL; for Fold increase in L119 mRNA expression upon kainate treatment: vs PBS
Experimental: as §1

L100 mRNA [5] = assay: kainate-induced seizures, in situ hybridization; type: in vivo, rat; details: six hours following kainate injection
Experimental: For in situ hybridization, Dig-labeled cRNA probes were used as described elsewhere (Kuner et al., Science 283:5398 (1999)). […] Specifically, L100 mRNA expression was induced 17.2 fold by the multiple MECS treatment as determined from Northern blot data using total RNA from rat hippocampus (Table I).
as §1

R286 mRNA [6] = assay: kainate-induced seizures, in situ hybridization; type: in vivo, rat
Experimental: (§2) For in situ hybridization, Dig-labeled cRNA probes were used as described elsewhere (Kuner et al., Science 283:5398 (1999)). Specifically, R286 mRNA expression was the highest in the cortex and hippocampus while being moderately high in the cerebellar granule cells, brainstem nuclei, several lateral and medial thalamic nuclei, olfactory bulb, and striatum. […] Briefly, a probe from the 3′ untranslated region of R286 was used to hybridize a Northern blot containing 2 μg polyA^+ RNA from hippocampus from brains of untreated rats as well as rats receiving the multiple MECS treatment. After one day of exposure using the phosphoimager FLA2000 (Fuji), an upregulation of R286 mRNA was detected in the hippocampus (3.72 fold induction) collected four hours after the last MECS treatment. An additional Northern blot analysis using 10 μg total RNA from hippocampus from untreated rats and rats receiving the multiple MECS treatment was performed.
(§3) In addition, rats that developed seizures following intraperitoneal injection of kainate or PTZ were analyzed for the expression of R286 mRNA in addition to the mRNA of other LEG clones (Tables III and V).

L100 mRNA [7] = assay: PTZ-induced seizures, mRNA expression by Northern blot; type: in vivo, rat; details: for Fold increase in L100 mRNA expression upon PTZ treatment: vs PBS; for L100 mRNA expression normalized to GADPH expression: Integral PSL - background PSL
Experimental: (§4) PTZ-induced seizures is a model used to study epilepsy and ischemia. Briefly, 300-350 g male Sprague-Dawley rats were intrapertoneally injected with either 50 mg/kg body weight of PTZ or PBS. Total RNA samples from the hippocampus, cortex, and cerebellum were prepared from treated rats at 20 minutes, 6 hours, and 24 hours post-injection. This RNA then was used to measure mRNA expression by Northern blot analysis. Control mRNA measurements included c-fos and GAPDH. A Phosphoimager FLA2000 (Fuji) was used to analyze the data, which was expressed as the Integral PSL—background PSL (1D evaluation with Aida version 2.0).

R113 mRNA [8] = assay: as above; type: in vivo, rat; details: hippocampus, 6 hour, vs PBS
Experimental: as §4

L119 mRNA [9] = assay: as above; type: in vivo, rat; details: for Fold increase in L119 mRNA expression upon PTZ treatment: 20 min, vs PBS; for L119 mRNA expression normalized to GADPH expression: 20 min after PTZ 50 mg/kg i.p., Integral PSL - background PSL
Experimental: as §4

R286 mRNA [10] = assay: as above; type: in vivo, rat; details: hippocampus, 6 hour, vs PBS
Experimental: as §4, §3

R286 mRNA [11] = assay: PTZ-induced seizures, in situ hybridization; type: in vivo, rat
Experimental: as §2, §3

GAPDH mRNA = assay: 3-NP ischemia model, Northern blot of total brain RNA; type: in vivo, rat; details: 3-NP 20 mg/kg i.p., three hours post-injection, total brain RNA without cerebellum; PSL - background; untreated 487.02
Experimental: (§5) In another study, the expression pattern of L100 and L119 was determined using two models for ischemia. Briefly, neurons degenerate in brain and spinal cord after acute insults (e.g., stroke, cardiac arrest, and trauma) and during progressive, adult-onset diseases (e.g., amyotrophic lateral sclerosis, and Alzheimer's disease). Impaired energy metabolism plays an important role in neuronal cell death after brain ischemia, and apoptosis has been implicated in cell death induced by metabolic impairment. The irreversible inhibitor of succinate dehydrogenase in the mitochondria, 3-nitroproplonic acid (3-NP), inhibits oxidative phosphorylation and causes intracellular hypoxia. Thus, one model used to study ischemia involves intrastriatal injections of 3-NP, which is known to produce selective cell death similar to that observed in transient ischemia and Huntington's disease (McLaughlin et al., J. Neurochem 70:2406-2415 (1998)). The other model is a global ischemic paradigm that involves a 15 minute insult by complete occlusion of the carotis.
(§6) In the 3-NP study, 220-300 g Wistar rats were intraperitoneally injected with 20 mg/kg body weight. Three hours post-injections, the brain was removed and total RNA prepared. In the global ischemia study, 220-300 g Wistar rats were received a 15 minute insult (bilateral occlusion of the Carotis/arterial pressure=35 mm Hg). One hour later, the rats received a reperfusion followed by immediate brain dissection and total RNA preparation. Untreated rats were used as controls for each study. Ten (10) μg of total rat brain RNA (without cerebellum) was loaded per lane and blotted. Probes were prepared from the 3′ untranslated regions of L100 and L119. The Northern blot data was collected using a Phosphoimager (FLA2000 Fuji, Tina software) and expressed as PSL—background.

L100 mRNA [12] = assay: as above; type: in vivo, rat; details: 3-NP 20 mg/kg i.p., three hours post-injection, total brain RNA without cerebellum; PSL - background; untreated 30.95
Experimental: as §5, §6

L119 mRNA [13] = assay: as above; type: in vivo, rat; details: 3-NP 20 mg/kg i.p., three hours post-injection, total brain RNA without cerebellum; PSL - background; untreated 55.48
Experimental: as §5, §6

c-fos mRNA = assay: as above; type: in vivo, rat; details: 3-NP 20 mg/kg i.p., three hours post-injection, total brain RNA without cerebellum; PSL - background; untreated 18.1
[14] = cortex, 6 hour after kainate 10 mg/kg i.p.
[15] = cortex, 24 hour after kainate 10 mg/kg i.p.
[16] = hippocampus, 1.5 hour after kainate 10 mg/kg i.p.
[17] = hippocampus, 6 hour after kainate 10 mg/kg i.p.
[18] = hippocampus, 24 hour after kainate 10 mg/kg i.p.

NGF: NGF used to treat PC12 cells
R010 expression in vitro [1]: rapidly induced

C=C(C)[C@H]1CN[C@H](C(=O)O)[C@H]1CC(=O)O [kainate]
Fold increase in L094 mRNA expression upon kainate treatment (L094 mRNA): 3.6 fold | L100 mRNA expression normalized to GADPH expression (L100 mRNA [2]; [14]): 290 | Fold increase in L100 mRNA expression upon kainate treatment (L100 mRNA [2]; cortex, 6 hour): 3.58 fold | L100 mRNA expression normalized to GADPH expression (L100 mRNA [2]; [15]): 131 | Fold increase in L100 mRNA expression upon kainate treatment (L100 mRNA [2]; cortex, 24 hour): 1.52 fold | L100 mRNA expression normalized to GADPH expression (L100 mRNA [2]; [16]): 85251 | Fold increase in L100 mRNA expression upon kainate treatment (L100 mRNA [2]; hippocampus, 1.5 hour): 18.44 fold | L100 mRNA expression normalized to GADPH expression (L100 mRNA [2]; [17]): 15444 | Fold increase in L100 mRNA expression upon kainate treatment (L100 mRNA [2]; hippocampus, 6 hour): 1.97 fold | L100 mRNA expression normalized to GADPH expression (L100 mRNA [2]; [18]): 16551 | Fold increase in L100 mRNA expression upon kainate treatment (L100 mRNA [2]; hippocampus, 24 hour): 4.20 fold | expression of L100 mRNA when acute seizures were induced by kainate treatment (L100 mRNA [2]; kainate 10 mg/kg i.p.): strongly upregulated | Fold increase in R113 mRNA expression upon kainate treatment (R113 mRNA [3]): 2.0 fold | Fold increase in A013 mRNA expression upon kainate treatment (A013 mRNA): 9.8 fold | L119 mRNA expression normalized to GADPH expression (L119 mRNA [4]; [14]): 1262 | L119 mRNA expression normalized to GADPH expression (L119 mRNA [4]; [15]): 505 | L119 mRNA expression normalized to GADPH expression (L119 mRNA [4]; [16]): 69982 | Fold increase in L119 mRNA expression upon kainate treatment (L119 mRNA [4]; hippocampus, 1.5 hour): 24.85 fold | L119 mRNA expression normalized to GADPH expression (L119 mRNA [4]; [17]): 11519 | Fold increase in L119 mRNA expression upon kainate treatment (L119 mRNA [4]; hippocampus, 6 hour): 2.51 fold | L119 mRNA expression normalized to GADPH expression (L119 mRNA [4]; [18]): 12944 | Fold increase in L119 mRNA expression upon kainate treatment (L119 mRNA [4]; hippocampus, 24 hour): 4.64 fold | L100 mRNA regulation by in situ hybridization (L100 mRNA [5]; dentate gyrus, CA3 and CA4 of hippocampus, entorrhinal cortex, cingulum, fimbria): strong upregulation | L100 mRNA regulation by in situ hybridization (L100 mRNA [5]; thalamic nuclei, temporal, parietal, frontal, medial orbital and cingulate cortex, cerebellar granule cells): Moderate upregulation | R286 mRNA expression by in situ hybridization (R286 mRNA [6]; 1.5 hours post-kainate injection): no upregulation | R286 mRNA expression by in situ hybridization (R286 mRNA [6]; 6 hours post-kainate injection, hippocampal pyramidal cell layer, cortex, thalamus, cerebellar Purkinje cell layer): mildly upregulated

C1CCc2nnnn2CC1 [PTZ, pentylenetetrazole]
expression of L100 mRNA when acute seizures were induced by PTZ treatment (L100 mRNA [7]; PTZ 50 mg/kg i.p.): strongly upregulated | Fold increase in L100 mRNA expression upon PTZ treatment (L100 mRNA [7]; cortex, 20 min): 2.84 fold | L100 mRNA expression normalized to GADPH expression (L100 mRNA [7]; cortex, 20 min after PTZ 50 mg/kg i.p.): 2719 | L100 mRNA expression normalized to GADPH expression (L100 mRNA [7]; cortex, 6 hour after PTZ 50 mg/kg i.p.): 3740 | Fold increase in L100 mRNA expression upon PTZ treatment (L100 mRNA [7]; cortex, 6 hour): 3.22 fold | L100 mRNA expression normalized to GADPH expression (L100 mRNA [7]; cortex, 24 hour after PTZ 50 mg/kg i.p.): 1825 | Fold increase in L100 mRNA expression upon PTZ treatment (L100 mRNA [7]; cortex, 24 hour): 1.55 fold | Fold increase in L100 mRNA expression upon PTZ treatment (L100 mRNA [7]; hippocampus, 20 min): 3.1 fold | L100 mRNA expression normalized to GADPH expression (L100 mRNA [7]; hippocampus, 20 min after PTZ 50 mg/kg i.p.): 1637 | L100 mRNA expression normalized to GADPH expression (L100 mRNA [7]; hippocampus, 6 hour after PTZ 50 mg/kg i.p.): 1992 | Fold increase in L100 mRNA expression upon PTZ treatment (L100 mRNA [7]; hippocampus, 6 hour): 2.33 fold | L100 mRNA expression normalized to GADPH expression (L100 mRNA [7]; hippocampus, 24 hour after PTZ 50 mg/kg i.p.): 1903 | Fold increase in L100 mRNA expression upon PTZ treatment (L100 mRNA [7]; hippocampus, 24 hour): 1.97 fold | Fold increase in R113 mRNA expression upon PTZ treatment (R113 mRNA [8]): 2.0 fold | Fold increase in L119 mRNA expression upon PTZ treatment (L119 mRNA [9]; cortex): 2.78 fold | L119 mRNA expression normalized to GADPH expression (L119 mRNA [9]; cortex): 1605 | Fold increase in L119 mRNA expression upon PTZ treatment (L119 mRNA [9]; hippocampus): 2.82 fold | L119 mRNA expression normalized to GADPH expression (L119 mRNA [9]; hippocampus): 965 | Fold increase in R286 mRNA expression upon PTZ treatment (R286 mRNA [10]): 2.6 fold | R286 mRNA expression by in situ hybridization (R286 mRNA [11]; 20 minutes post-PTZ injection): no upregulation | R286 mRNA expression by in situ hybridization (R286 mRNA [11]; 6 hours post-PZT injection, hippocampal pyramidal cell layer, cortex, thalamus, cerebellar Purkinje cell layer): mildly upregulated

O=C(O)CC[N+](=O)[O-] [3-NP, 3-nitroproplonic acid]
GAPDH mRNA expression after 3-NP treatment (GAPDH mRNA): 587.51 | L100 mRNA expression after 3-NP treatment (L100 mRNA [12]): 43.82 | L119 mRNA expression after 3-NP treatment (L119 mRNA [13]): 41.94 | c-fos mRNA expression after 3-NP treatment (c-fos mRNA): 26.64
